Results on one compound are retold here after publication PMC11768629, “Potential Interaction of Pinocembrin with Drug Transporters and Hepatic Drug-Metabolizing Enzymes” (Pharmaceuticals, 2025).

The target of data set [1] is T1, hOCT2 (Homo sapiens, UniProt O15244).
T1 construct: host or cells: CHO-K1
The experiment in a line: Cis-inhibition assay, 3H-MPP+ uptake in hOCT2-CHO-K1 cells. Format: cell-based. To be noted: pinocembrin. As for the experimental part: Next, the effects of pinocembrin on the transport function of renal drug transporters, including hOAT1, hOAT3, hOCT1, hOCT2, hMATE1, and hMATE2, were determined.
(§1) A cell monolayer comprising hOAT1-MDCK, hOAT3-MDCK, hOCT1-CHO-K1, hOCT2-CHO-K1, hMATE1-CHO-K1, hMATE2-CHO-K1, and mock cells were utilized for the uptake experiments. The cells were washed three times with a buffer containing (in mM) 140 NaCl, 5 KCl, 0.4 MgSO4, 0.5 MgCl2, 1 CaCl2, 0.3 Na2HPO4, 0.4 KH2PO4, 6 D-glucose, and 4 NaHCO3 at pH 7.4 and incubated at 37 °C for 15 min. After incubation, the hOAT1-MDCK and hOAT3-MDCK cells were incubated for 10 min with ^3H-PAH and ^3H-estrone sulfate, a substrate of hOAT1 and hOAT3, respectively. The hOCT1-CHO-K1 and hOCT2-CHO-K1 cells were incubated with ^3H-MPP^+, a substrate of OCT1 and OCT2, for five minutes. The functions of MATE1 and MATE2 were determined by incubating the hMATE1-CHO-K1 and hMATE2-CHO-K1 cells with a buffer containing ^3H-MPP^+, a substrate of MATE1 and MATE2, at pH 8.5 for five minutes. The cells were washed three times with an ice-cold buffer to stop the transport function. The cells were lyzed with 0.4 N NaOH for at least four hours. The samples were collected and transferred to vials containing a liquid scintillation cocktail to measure radioactivity by a β-counter (Packard BioScience, Wellesley, MA, USA). […]

Data set [2] addresses T2, hOAT1 (Homo sapiens, UniProt Q4U2R8).
T2 construct: host or cells: MDCK
T2 sequence (Q4U2R8 1-563): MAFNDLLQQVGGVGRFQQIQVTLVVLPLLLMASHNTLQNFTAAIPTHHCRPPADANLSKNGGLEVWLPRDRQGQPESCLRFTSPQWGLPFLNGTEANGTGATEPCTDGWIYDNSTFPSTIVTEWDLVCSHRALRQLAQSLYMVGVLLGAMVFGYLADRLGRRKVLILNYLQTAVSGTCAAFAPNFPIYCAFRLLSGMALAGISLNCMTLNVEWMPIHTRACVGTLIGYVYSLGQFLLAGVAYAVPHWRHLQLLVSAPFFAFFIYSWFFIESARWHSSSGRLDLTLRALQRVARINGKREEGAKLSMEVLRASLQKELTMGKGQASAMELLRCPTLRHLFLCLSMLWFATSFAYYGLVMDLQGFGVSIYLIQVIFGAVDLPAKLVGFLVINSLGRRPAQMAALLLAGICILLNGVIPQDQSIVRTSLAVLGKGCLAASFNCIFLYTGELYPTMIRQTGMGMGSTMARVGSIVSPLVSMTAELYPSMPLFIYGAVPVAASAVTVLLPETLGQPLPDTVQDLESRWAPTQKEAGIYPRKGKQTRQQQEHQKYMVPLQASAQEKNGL
The experiment in a line: Pinocembrin treatment followed by 3H-PAH accumulation in hOAT1-MDCK cells. Format: cell-based. To be noted: 1, 10 and 50 μM for 24 h, concentration-dependent, compared with vehicle. As for the experimental part:
(§2) The hOAT1-MDCK cells and hOAT3-MDCK cells were treated with 1, 10, and 50 μM pinocembrin for 24 h, followed by a measurement of ^3H-PAH and ^3H-estrone sulfate cellular accumulation. […] The inhibitory effect of pinocembrin occurred in a concentration-dependent manner.
as §1, with “The cells were lyzed with 0.4 N NaOH for at least four hours.” left out

Data set [3] has as its target T3, hOAT3 (Homo sapiens, UniProt Q8TCC7).
T3 construct: host or cells: MDCK
T3 sequence (Q8TCC7 1-542): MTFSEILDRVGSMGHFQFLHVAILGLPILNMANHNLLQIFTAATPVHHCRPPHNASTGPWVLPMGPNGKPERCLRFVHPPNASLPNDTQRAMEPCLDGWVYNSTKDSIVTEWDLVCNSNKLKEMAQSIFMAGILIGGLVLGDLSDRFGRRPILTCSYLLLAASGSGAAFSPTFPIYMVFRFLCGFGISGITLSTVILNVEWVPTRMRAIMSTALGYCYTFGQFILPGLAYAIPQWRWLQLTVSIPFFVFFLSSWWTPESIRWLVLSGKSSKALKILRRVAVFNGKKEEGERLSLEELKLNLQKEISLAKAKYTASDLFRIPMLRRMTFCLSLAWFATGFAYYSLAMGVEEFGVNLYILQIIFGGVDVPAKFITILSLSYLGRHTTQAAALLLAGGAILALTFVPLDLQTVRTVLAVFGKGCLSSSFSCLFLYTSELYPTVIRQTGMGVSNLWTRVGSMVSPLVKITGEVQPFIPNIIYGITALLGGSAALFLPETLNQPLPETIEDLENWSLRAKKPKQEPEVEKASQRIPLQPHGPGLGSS
The experiment in a line: Pinocembrin treatment followed by 3H-estrone sulfate accumulation in hOAT3-MDCK cells. Format: cell-based. To be noted: 1, 10 and 50 μM for 24 h, concentration-dependent, compared with vehicle. As for the experimental part: as §2
as §1, with “The cells were lyzed with 0.4 N NaOH for at least four hours.” left out

The target of data set [4] is T4, CYP2C19 (Homo sapiens, UniProt P33261).
T4 construct: purchased Life Technologies
The experiment in a line: Cell-free CYP450 inhibition assay, CYP2C19. Format: biochemical. Conditions: cell-free fluorescent probe assay. As for the experimental part:
To determine whether pinocembrin influences the catalytic activity of CYP450 enzymes, fluorescent probe reaction assays were performed using varying concentrations of pinocembrin. […] In addition, molecular docking was conducted to better understand the binding mode and interactions between pinocembrin and human CYP2C19.
The CYP450 inhibitory activity of pinocembrin was determined using a P450 screening kit (Life Technologies; Carlsbad, CA, USA). Varied concentrations of pinocembrin were prepared in methanol. […] The fluorescence intensities were monitored every minute for 60 min at room temperature. The percentage of inhibition was calculated according to the following equation: % Inhibition=(1−X−B/A−B)×100% where X is the fluorescence intensity observed in the presence of pinocembrin.

Data set [5] relates to CYP2A6. More on the design: method as in PMID 34069400, doi:10.5562/cca3652, PMID 35721953. Conditions: cited from earlier work.
The test system of data set [6] is CYP2C8. Details: method as in PMID 34069400, doi:10.5562/cca3652, PMID 35721953. To be noted: cited from earlier work.

T4 sequence (P33261 whole entry): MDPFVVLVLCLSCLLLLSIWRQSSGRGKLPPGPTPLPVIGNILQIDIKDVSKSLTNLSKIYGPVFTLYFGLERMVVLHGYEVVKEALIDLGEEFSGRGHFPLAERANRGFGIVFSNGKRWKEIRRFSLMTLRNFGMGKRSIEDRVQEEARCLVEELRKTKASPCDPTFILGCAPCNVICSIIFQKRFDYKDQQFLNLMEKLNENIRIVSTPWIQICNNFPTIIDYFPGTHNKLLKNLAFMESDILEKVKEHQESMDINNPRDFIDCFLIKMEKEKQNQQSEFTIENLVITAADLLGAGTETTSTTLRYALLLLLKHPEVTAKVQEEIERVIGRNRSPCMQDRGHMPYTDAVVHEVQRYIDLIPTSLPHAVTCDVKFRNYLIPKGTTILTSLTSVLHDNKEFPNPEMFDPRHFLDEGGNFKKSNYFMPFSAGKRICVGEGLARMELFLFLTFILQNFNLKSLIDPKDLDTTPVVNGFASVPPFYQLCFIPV
T1 sequence (O15244 whole entry): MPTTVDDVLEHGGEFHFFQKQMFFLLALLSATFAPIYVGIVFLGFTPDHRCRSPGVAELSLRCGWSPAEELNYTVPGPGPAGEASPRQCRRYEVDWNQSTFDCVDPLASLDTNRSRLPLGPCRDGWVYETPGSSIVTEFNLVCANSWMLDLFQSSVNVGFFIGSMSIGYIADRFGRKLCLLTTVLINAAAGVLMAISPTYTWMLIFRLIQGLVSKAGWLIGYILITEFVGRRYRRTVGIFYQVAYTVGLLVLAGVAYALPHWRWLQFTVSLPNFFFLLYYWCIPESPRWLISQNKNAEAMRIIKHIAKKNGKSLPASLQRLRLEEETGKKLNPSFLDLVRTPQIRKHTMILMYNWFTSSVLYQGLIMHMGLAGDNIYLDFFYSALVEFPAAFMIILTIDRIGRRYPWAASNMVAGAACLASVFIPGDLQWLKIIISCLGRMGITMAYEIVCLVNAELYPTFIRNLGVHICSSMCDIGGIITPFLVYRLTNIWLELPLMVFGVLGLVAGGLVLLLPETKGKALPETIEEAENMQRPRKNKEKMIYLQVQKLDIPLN

The IC50 is the concentration at which inhibition is half-maximal. In the case of `O=C1C[C@@H](c2ccccc2)Oc2cc(O)cc(O)c21` [pinocembrin], in data set [1], the “hOCT2-mediated uptake of 3H-MPP+” value was “did not alter”. Also, in data set [2], the “3H-PAH accumulation after pinocembrin treatment” value is given as “significantly decreased”. For the same compound, the “3H-estrone sulfate accumulation after pinocembrin treatment” value in data set [3] is reported as “significantly decreased”. The compound also yielded an IC50 in data set [4] (BACULOSOMES) of 4.5 µM. In data set [4] (human, CYP2C19 BACULOSOMES (cell-free recombinant enzyme)), the IC50 at 60 min worked out at 4.49 µM. In data set [5], the “effect on the activity of CYP2A6” value is listed as “does not affect”. For the same compound, the “effect on the activity of CYP2C8” value in data set [6] is on record as “does not affect”.
